PubChem BioAssay (NCI)
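Assay format: 96-well plates, 48-hour exposure. TGI marks complete inhibition of growth.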

Key:
Assay in all cases: DTP human tumour cell line panel, 48 h
SNB-19 CNS = tested on: SNB-19 CNS
IGROV1 ovarian = tested on: IGROV1 ovarian
U251 CNS = tested on: U251 CNS
SK-OV-3 ovarian = tested on: SK-OV-3 ovarian
OVCAR-4 ovarian = tested on: OVCAR-4 ovarian
MDA-N = tested on: MDA-N
SF-268 CNS = tested on: SF-268 CNS
NCI/ADR-RES ovarian = tested on: NCI/ADR-RES ovarian
MCF7 breast = tested on: MCF7 breast
COLO 205 colon = tested on: COLO 205 colon
HT29 colon = tested on: HT29 colon
HCT-15 colon = tested on: HCT-15 colon
NCI-H23 lung = tested on: NCI-H23 lung
SR leukemia = tested on: SR leukemia
SF-295 CNS = tested on: SF-295 CNS
PC-3 prostate = tested on: PC-3 prostate
HCT-116 colon = tested on: HCT-116 colon
MOLT-4 leukemia = tested on: MOLT-4 leukemia
OVCAR-3 ovarian = tested on: OVCAR-3 ovarian
KM12 colon = tested on: KM12 colon
M14 melanoma = tested on: M14 melanoma
ACHN renal = tested on: ACHN renal
CCRF-CEM leukemia = tested on: CCRF-CEM leukemia
LOX IMVI melanoma = tested on: LOX IMVI melanoma
SNB-75 CNS = tested on: SNB-75 CNS
SW-620 colon = tested on: SW-620 colon
MDA-MB-231 breast = tested on: MDA-MB-231 breast
DU-145 prostate = tested on: DU-145 prostate
A498 renal = tested on: A498 renal
MALME-3M melanoma = tested on: MALME-3M melanoma
HS 578T breast = tested on: HS 578T breast
SK-MEL-2 melanoma = tested on: SK-MEL-2 melanoma
SK-MEL-28 melanoma = tested on: SK-MEL-28 melanoma
HL-60(TB) leukemia = tested on: HL-60(TB) leukemia
HOP-92 NSCLC = tested on: HOP-92 NSCLC
786-0 renal = tested on: 786-0 renal
NCI-H226 lung = tested on: NCI-H226 lung
OVCAR-8 ovarian = tested on: OVCAR-8 ovarian
SN12C renal = tested on: SN12C renal
K-562 leukemia = tested on: K-562 leukemia
HOP-62 NSCLC = tested on: HOP-62 NSCLC
NCI-H522 lung = tested on: NCI-H522 lung
TK-10 renal = tested on: TK-10 renal
UO-31 renal = tested on: UO-31 renal
RPMI-8226 leukemia = tested on: RPMI-8226 leukemia
UACC-62 melanoma = tested on: UACC-62 melanoma
SK-MEL-5 melanoma = tested on: SK-MEL-5 melanoma
A549 NSCLC = tested on: A549 NSCLC
EKVX NSCLC = tested on: EKVX NSCLC
OVCAR-5 ovarian = tested on: OVCAR-5 ovarian
MDA-MB-435 = tested on: MDA-MB-435
NCI-H460 lung = tested on: NCI-H460 lung
T-47D breast = tested on: T-47D breast
HCC-2998 colon = tested on: HCC-2998 colon
UACC-257 melanoma = tested on: UACC-257 melanoma
SF-539 CNS = tested on: SF-539 CNS
RXF 393 renal = tested on: RXF 393 renal
CAKI-1 renal = tested on: CAKI-1 renal

Measured: TGI

CSC1=N/C(=C\c2ccccc2)C(=O)N1CN1CCOCC1
> 100 µM: SNB-19 CNS | IGROV1 ovarian | U251 CNS | SK-OV-3 ovarian | MDA-N | SF-268 CNS | NCI/ADR-RES ovarian | MCF7 breast | COLO 205 colon | HCT-15 colon | NCI-H23 lung | SR leukemia | SF-295 CNS | PC-3 prostate | HCT-116 colon | MOLT-4 leukemia | OVCAR-3 ovarian | KM12 colon | M14 melanoma | ACHN renal | CCRF-CEM leukemia | LOX IMVI melanoma | SNB-75 CNS | SW-620 colon | MDA-MB-231 breast | DU-145 prostate | A498 renal | MALME-3M melanoma | HS 578T breast | SK-MEL-2 melanoma | SK-MEL-28 melanoma | HL-60(TB) leukemia | HOP-92 NSCLC | 786-0 renal | NCI-H226 lung | OVCAR-8 ovarian | SN12C renal | K-562 leukemia | HOP-62 NSCLC | NCI-H522 lung | TK-10 renal | UO-31 renal | RPMI-8226 leukemia | UACC-62 melanoma | SK-MEL-5 melanoma | A549 NSCLC | EKVX NSCLC | OVCAR-5 ovarian | MDA-MB-435
78.5 µM: HT29 colon
90.8 µM: OVCAR-4 ovarian

COc1ccc(/C=C/c2ccnc3ccccc23)cc1
31 µM: LOX IMVI melanoma
31.1 µM: COLO 205 colon
27 µM: ACHN renal
31.2 µM: MDA-MB-435
29.2 µM: UACC-62 melanoma
32.5 µM: IGROV1 ovarian
37.6 µM: SF-539 CNS
37.4 µM: T-47D breast
27.5 µM: SK-MEL-5 melanoma
25.8 µM: EKVX NSCLC
39.7 µM: PC-3 prostate
48.8 µM: HS 578T breast
23.2 µM: K-562 leukemia
35.9 µM: HOP-62 NSCLC
61.1 µM: SR leukemia
29.4 µM: SK-MEL-28 melanoma
31.7 µM: M14 melanoma | TK-10 renal
29.1 µM: HCT-116 colon
31.4 µM: MCF7 breast | UACC-257 melanoma
28.7 µM: CCRF-CEM leukemia
36.6 µM: HCC-2998 colon | NCI-H522 lung
36.3 µM: SW-620 colon
45 µM: RPMI-8226 leukemia
0.0937 µM: UO-31 renal
30.6 µM: NCI-H23 lung | MALME-3M melanoma | 786-0 renal
34 µM: MOLT-4 leukemia
33.5 µM: SK-OV-3 ovarian
38.4 µM: SK-MEL-2 melanoma
26.3 µM: OVCAR-3 ovarian
39.6 µM: HCT-15 colon
35.4 µM: RXF 393 renal
27.9 µM: A498 renal
32.7 µM: SF-295 CNS | SN12C renal
28 µM: DU-145 prostate
30.4 µM: SF-268 CNS
16.5 µM: HOP-92 NSCLC
33.6 µM: NCI/ADR-RES ovarian
36.5 µM: OVCAR-5 ovarian
31.6 µM: MDA-N | CAKI-1 renal
20.1 µM: HL-60(TB) leukemia
30.1 µM: KM12 colon
23.1 µM: HT29 colon
47.7 µM: NCI-H460 lung
31.9 µM: U251 CNS
36.8 µM: SNB-19 CNS
30.8 µM: A549 NSCLC
19.9 µM: OVCAR-4 ovarian
38.2 µM: NCI-H226 lung

CC(C)[Si](Oc1cc2c3c(ccc2c(O)c1[C@@H](C)CO[Si](C)(C)C(C)(C)C)C(C)(C)CCC3)(C(C)C)C(C)C
43.4 µM: HL-60(TB) leukemia
> 100 µM: NCI-H460 lung | SNB-19 CNS | IGROV1 ovarian | U251 CNS | SK-OV-3 ovarian | OVCAR-4 ovarian | MDA-N | SF-268 CNS | NCI/ADR-RES ovarian | MCF7 breast | COLO 205 colon | HT29 colon | HCT-15 colon | NCI-H23 lung | SR leukemia | SF-295 CNS | PC-3 prostate | HCT-116 colon | MOLT-4 leukemia | OVCAR-3 ovarian | KM12 colon | M14 melanoma | ACHN renal | CCRF-CEM leukemia | LOX IMVI melanoma | SNB-75 CNS | SW-620 colon | MDA-MB-231 breast | UACC-257 melanoma | DU-145 prostate | A498 renal | MALME-3M melanoma | HS 578T breast | SF-539 CNS | SK-MEL-2 melanoma | SK-MEL-28 melanoma | HOP-92 NSCLC | 786-0 renal | NCI-H226 lung | OVCAR-8 ovarian | SN12C renal | RXF 393 renal | K-562 leukemia | HOP-62 NSCLC | NCI-H522 lung | TK-10 renal | UO-31 renal | RPMI-8226 leukemia | UACC-62 melanoma | A549 NSCLC | EKVX NSCLC | OVCAR-5 ovarian | MDA-MB-435 | CAKI-1 renal
59.8 µM: SK-MEL-5 melanoma

N#Cc1nc(-c2ccccc2O)oc1N
> 100 µM: SNB-19 CNS | IGROV1 ovarian | U251 CNS | SK-OV-3 ovarian | MDA-N | SF-268 CNS | MCF7 breast | HT29 colon | HCT-15 colon | PC-3 prostate | HCT-116 colon | MOLT-4 leukemia | KM12 colon | M14 melanoma | ACHN renal | CCRF-CEM leukemia | LOX IMVI melanoma | SW-620 colon | MDA-MB-231 breast | UACC-257 melanoma | DU-145 prostate | A498 renal | HS 578T breast | SK-MEL-2 melanoma | SK-MEL-28 melanoma | HL-60(TB) leukemia | HOP-92 NSCLC | 786-0 renal | OVCAR-8 ovarian | SN12C renal | RXF 393 renal | K-562 leukemia | HOP-62 NSCLC | TK-10 renal | RPMI-8226 leukemia | UACC-62 melanoma | SK-MEL-5 melanoma | A549 NSCLC | EKVX NSCLC | OVCAR-5 ovarian | MDA-MB-435 | CAKI-1 renal
